Test system: CAR-T cells
Test: Effect of Tacrolimus on proliferation of CAR-expressing cells in co-culture
Assay type: cell-based
Settings: 20 ng/ml Tacrolimus
Method: Cells were co-cultures for 96 hours at a 1:4 E:T ratio in the presence or absence of 20 ng/ml of Tacrolimus. Transduced effector cells were identified based on their expression of RQR8 and their proliferation analysed using cell-trace violet (CTV) dilution. […] In a similar study, cells transduced to express either TRBC2 CAR alone or TRBC2 CAR in combination with a calcineurin mutant (CnB30) were co-cultured for 4 days with TRBC2+ positive targets in the presence or absence of 20 ng/ml of Tacrolimus. […] This was true for cells expressing TRBC2 CAR alone or co-expressing TRBC2 CAR in combination with the calcineurin mutant.

For `C=CC[C@@H]1/C=C(\C)C[C@H](C)C[C@H](OC)[C@H]2O[C@@](O)(C(=O)C(=O)N3CCCC[C@H]3C(=O)O[C@H](/C(C)=C/[C@@H]3CC[C@@H](O)[C@H](OC)C3)[C@H](C)[C@@H](O)CC1=O)[C@H](C)C[C@@H]2OC` [Tacrolimus], the “proliferation of cells expressing TRBC2 CAR alone” value (4 days co-culture with TRBC2+ targets, FIG. 22) was “inhibits proliferation” and the “proliferation of CAR-T cells” value (96 h co-culture, FIG. 16B vs FIG. 17B) was “inhibited”.

Source: patent US20230148144A1, “Cell” (AUTOLUS LIMITED, priority 2020, published 2023)
